In US20050181360A1, “Assay for cell cycle modulators based on the modulation of cyclin d1 degradation in response to ionising radiation” (priority 2000, published 2005):
Residues, ends and D or L forms follow the SMILES beside them. *: point of attachment. Cbz = O=C(OCc1ccccc1)*

Experiments:
Type in all cases: cell-based
[1] = system: cyclin D1 protein in MCF-7 cells; assay: Effect of GSK3 inhibition by Li+ on IR-induced cyclin D1 degradation, immunoblot
From the text: Activation of the PI3K-PKB/Akt-GSK-3β pathway leads to cyclin D1 degradation through phosphorylation of threonine 286 of cyclin D1 by GSK3-β (Diehl et al., 1998). We therefore asked whether this pathway is also activated by IR and is involved in stress-induced degradation of cyclin D1. To investigate the co-immunoprecipitation of GSK3-β with CDK4-cyclin D1 complex, MCF-7 cells were subjected to treatment with proteasome inhibitor cbz-LLL and IR. 5% of the cell lysates or the immunoprecipitated protein complexes were separated on 10% SDS-PAGE and immunoblotted against cyclin-D1, CDK4, GSK3- and control JNK1 proteins. […] We used proteasome inhibitors to protect cyclin D1 from degradation thereby making a direct comparison between the different treatments possible. […] MCF-7 cells were treated with increasing concentrations of LiCl or control KCl and subsequently IR (20 Gy). Lysates were prepared after 2 hours, separated on 10% SDS-PAGE and immunoblotted sequentially with anti-cyclin D1 and anti-p53 antibodies. If this pathway is involved, Li^+ ions should inhibit cyclin D1 degradation.

[2] = system: cyclin D1 protein in MCF-7 cells; assay: IR-induced cyclin D1 downregulation with proteasome inhibitor, Western blot; conditions: 5 mM cbz-LLL added after IR for two hours
Experimental: (§1) We then asked whether cyclin D1 protein stability was affected in response to IR using a pulse-chase experiment. MCF-7 cells were pulse-labelled with [^35S]-methionine and after IR chased with excess cold methionine for the indicated periods of time. Cyclin D1 protein was immunoprecipitated, separated on SDS-PAGE and detected by PhosphorImager. Cyclin D1 was destabilized immediately after IR; its half-life decreased from 40 minutes to less then 20 (FIG. 2). To ask whether the IR-induced degradation of cyclin D1 is mediated by the proteasome, MCF-7 cells were exposed to IR and subsequently the proteasome inhibitor cbz-LLL was added at increasing concentrations for two hours. After two hours, protein lysates were made, separated on 10% SDS PAGE, and Western blotted sequentially with antibodies against cyclin D1, p53 and cyclin E proteins.

[3] = system: CDK2 activity precipitated from MCF-7/E6 cells; assay: Immunoprecipitation-kinase assay of CDK2 activity after IR (histone H1 substrate); conditions: two hours after IR, 10 mM cbz-LLL
Experimental: We next determined the CDK2 activity precipitated from MCF-7/E6 cells treated with IR. Cells were treated as above, except that cells were harvested after 2 hours. […] Identical results were obtained with parental MCF-7 cells. Therefore, protein degradation seems to be necessary for fast CDK2 kinase inhibition after genotoxic stress.
We then examined the CDK2 activity in response to IR of cells transiently over-expressing either D1TA or D1TA-L32A proteins. MCF-7/E6 cells were electroporated as above, irradiated (20 Gy) and harvested 2 hours later. CDK2 protein was immunoprecipitated and its kinase activity was examined using Histone 1 as a substrate (H1). CDK2 protein level was determined by immunoblotting (IB) of the same membrane with an antibody against CDK2.
To determine CDK2 activity, specific complexes from either MCF-7/Neo or MCF-7/E6 cells were immunoprecipitated from extracts using anti-CDK2 antibody (M-2). The beads were washed two additional times with kinase buffer (20 mM Tris HCl pH:7.4, 4 mM MgCl2 and 0.5 mM DTT) and kinase reaction was carried out in […] volume kinase buffer containing […] histone-H1 as a specific substrate, […] [γ-^32P]-ATP (5000 mCi/mmol, Amersham) and […] ATP at 37 C for 30 minutes. GSK3-β activity, was determined exactly as described in (van Weeren et al., 1998) using peptide PG-S1 as a substrate.

cyclin D1 protein = assay: Cyclin D1 degradation in response to genotoxic agents
Experimental: as §1

MCF-7 cells = assay: IR-induced degradation of transfected cyclin mutants, immunoblot; conditions: transfected MCF-7 cells, IR 20 Gy, two hours
From the text: To map the motif in cyclin D1 that mediates its degradation by genotoxic stress we analyzed several mutants of D1 by expression in MCF-7 cells. In all these experiments a co-transfected GFP construct was used to confirm equal transfection efficiencies between irradiated- and control cells. When cyclin D1 was mutated at a site within the cyclin box that is essential for activation of CDK4/6 (mutant K112E), D1 degradation by IR remained. The same result was obtained when the pRb family binding site in cyclin D1 was mutated (LxCxE mutant). We therefore conclude that D1 induced degradation by genotoxic stress is independent of both CDK4/6 kinase and pRb binding.
In the yeast Saccharomyces cerevisiae, degradation of the cyclin C homologue Ume3p can be induced by various stress signals such as heat, oxidative stress and ethanol shock (Cooper et al., 1997; Cooper et al., 1999). Three regions in Ume3p are required for stress-induced degradation, including a destruction box at the amino terminus (RxxL motif), the amino terminal region of the cyclin box and a PEST domain. […] Since cyclin D2 is not degraded by the genotoxic stress response we mutated cyclin D1 to the corresponding amino acid in cyclin D2. […] To further investigate this, we performed a pulse-chase experiment with the cyclin D1 L32A destruction box mutant to determine its half-life. […]

Compound: [Cl-].[Li+] [Li^+ ions, LiCl]
- effect on cyclin D1 degradation by IR ([1]; increasing concentrations of LiCl, IR 20 Gy, lysates after 2 hours): no detectable effect
- cyclin D1 levels in non-irradiated cells ([1]; non-irradiated MCF-7 cells): increase

Compound: CC(C)C[C@@H](C=O)NC(=O)[C@H](CC(C)C)NC(=O)[C@H](CC(C)C)NC(=O)OCc1ccccc1 [cbz-LLL] (Cbz-Leu-Leu-Leu-aldehyde)
- block of cyclin D1 downregulation by IR [2]: completely block
- effect on cyclin E protein levels [2]: without any effect
- IR-induced reduction of CDK2 activity [3]: blocked

Compound: N.N.[Cl][Pt][Cl] [cis-platin]
- cyclin D1 degradation in response to genotoxic agent (cyclin D1 protein): rapidly degraded

Compound: K112E: cyclin D1 mutated within the cyclin box at a site essential for activation of CDK4/6
- degradation by IR (MCF-7 cells): remained

Compound: T286A: cyclin D1 mutant in which the GSK3-β phosphorylation site was mutated
- degradation by IR (MCF-7 cells): fully responsive
